In paper doi:10.1101/2024.12.09.627564, “Cannabinoid inhibition of mechanosensitive K^+ channels” (bioRxiv, 2024):

Legend:
[1] = as measured in plasma or estimated in brain tissue; cited from earlier work
Danio rerio TREK-1 = molecular target: T1, Danio rerio TREK-1 (Danio rerio, UniProt F1QAI2); test: Patch recording of Danio rerio TREK-1 from cultured cells; assay type: biochemical; conditions: IC50, Danio rerio TREK-1, patches
T1 sequence (F1QAI2 1-426): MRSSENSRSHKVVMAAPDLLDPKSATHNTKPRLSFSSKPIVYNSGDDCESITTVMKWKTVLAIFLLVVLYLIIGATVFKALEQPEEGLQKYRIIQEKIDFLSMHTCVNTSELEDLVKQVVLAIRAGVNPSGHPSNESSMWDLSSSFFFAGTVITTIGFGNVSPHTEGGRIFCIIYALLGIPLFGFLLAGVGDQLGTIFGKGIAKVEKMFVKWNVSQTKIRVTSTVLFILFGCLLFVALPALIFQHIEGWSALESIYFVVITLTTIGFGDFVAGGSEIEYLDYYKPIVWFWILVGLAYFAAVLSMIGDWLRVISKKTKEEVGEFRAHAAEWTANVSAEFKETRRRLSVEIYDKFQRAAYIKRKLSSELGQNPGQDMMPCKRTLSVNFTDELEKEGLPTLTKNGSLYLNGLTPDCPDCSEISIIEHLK
Procedure: For patch clamp recording from cultured cells, drTREK-1 or hsTRAAK genes were cloned into a modified pCEH vector to generate C-terminally EGFP-tagged constructs. HEK293T were cultured in DMEM (Gibco, Thermo Fisher Scientific) with 10% FBS and 100 U ml−1 penicillin and 100 μg ml−1 streptomycin. Trypsinized cells were deposited on 12-mm glass coverslips in a six-well dish one to two days before transfection. For transfection, drTREK-1 or hsTRAAK plasmids were mixed with FuGENE 6 in OptiMEM at a 1:3 ratio with 1 μg DNA per well per construct and applied to cells in growth medium with antibiotics. Patching was conducted from 24 to 60 h post-transfection. Coverslips were placed in a perfusion chamber at room temperature in isotonic bath solution: 135 mM NaCl, 15 mM KCl, 1 mM CaCl2, 1 mM MgCl2, 10 mM HEPES, adjusted to a final pH of 7.5 with NaOH. Cells were chosen by a combination of the presence GFP fluorescence and cell morphology consistent with healthy interphase cells. […]
Patches were evaluated with voltage-step protocols to confirm TRAAK expression and minimal non-specific leak based on reversal potential. Currents were recorded using an Axopatch 200B amplifier (Molecular Devices) at a bandwidth of 1 kHz and digitized with an Digidata 1550B (Molecular Devices) at 100–500 kHz using pClamp10.7 software. […] Data were analyzed using Clampfit 10.7, Excel, and Graphpad Prism software. […]

Question: Which “concentration in treated patients” value [1] does the source give for C=C(C)[C@@H]1CCC(C)=C[C@H]1c1c(O)cc(CCCCC)cc1O [CBD, Cannabidiol] here?
Answer: 50 to 100 nM

Question: And the IC50 (Danio rerio TREK-1)?
Answer: 11.1 µM
